Data as given in ChEMBL document CHEMBL6121016, “Design, Synthesis, and Biological Evaluation of 1,3,4-Thiadiazole Derivatives as Novel Potent Peptide Deformylase Inhibitors for Combating Drug-Resistant Gram-Positive and -Negative Bacteria” (J Med Chem, 2025).
≈ marks a conversion by molar mass, not a printed value.

Tests used:
Format in all cases: functional
Conditions in all cases: time 16-18 hrs
Acinetobacter baumannii [1] = assay: Antibacterial activity against Acinetobacter baumannii Bio 34235 after 16 to 18 hrs by broth microdilution method
Staphylococcus aureus [2] = assay: Antibacterial activity against methicillin-resistant Staphylococcus aureus ATCC 43300 after 16 to 18 hrs by broth microdilution method
Staphylococcus aureus [3] = assay: Antibacterial activity against methicillin-susceptible Staphylococcus aureus ATCC 13709 after 16 to 18 hrs by broth microdilution method
Escherichia coli = assay: Antibacterial activity against Escherichia coli ATCC 25922 after 16 to 18 hrs by broth microdilution method
Acinetobacter baumannii [4] = assay: Antibacterial activity against drug-resistant Acinetobacter baumannii Bio 53272 after 16 to 18 hrs by broth microdilution method
Staphylococcus aureus [5] = assay: Antibacterial activity against methicillin-susceptible Staphylococcus aureus ATCC 29213 after 16 to 18 hrs by broth microdilution method
Staphylococcus aureus [6] = assay: Antibacterial activity against methicillin-susceptible Staphylococcus aureus ATCC 25923 after 16 to 18 hrs by broth microdilution method
Staphylococcus aureus [7] = assay: Antibacterial activity against methicillin-resistant Staphylococcus aureus ATCC 33591 after 16 to 18 hrs by broth microdilution method
[8] = system: Staphylococcus epidermidis; assay: Antibacterial activity against Staphylococcus epidermidis after 16 to 18 hrs by broth microdilution method
Klebsiella pneumoniae = assay: Antibacterial activity against Klebsiella pneumoniae CICC 21611 after 16 to 18 hrs by broth microdilution method
Staphylococcus aureus [9] = assay: Antibacterial activity against methicillin-resistant Staphylococcus aureus Bio-090770 after 16 to 18 hrs by broth microdilution method

| Compound | MIC (Acinetobacter baumannii [1]) [µg/mL] | MIC (Staphylococcus aureus [2]) [µg/mL] | MIC (Staphylococcus aureus [3]) [µg/mL] | MIC (Escherichia coli) [µg/mL] | MIC (Acinetobacter baumannii [4]) [µg/mL] | MIC (Staphylococcus aureus [5]) [µg/mL] | MIC (Staphylococcus aureus [6]) [µg/mL] | MIC (Staphylococcus aureus [7]) [µg/mL] | MIC [8] [µg/mL] | MIC (Klebsiella pneumoniae) [µg/mL] | MIC (Staphylococcus aureus [9]) [µg/mL] |
| --- | --- | --- | --- | --- | --- | --- | --- | --- | --- | --- | --- |
| CCCC[C@H](CN(O)C=O)C(=O)N1CCC[C@H]1c1nnc(-c2ccc(Br)cc2)s1 | > 16 | 0.5 (≈ 1.04 µM) | 0.5 (≈ 1.04 µM) | > 16 | 16 (≈ 33.2 µM) | 1 (≈ 2.08 µM) | 0.5 (≈ 1.04 µM) | 0.5 (≈ 1.04 µM) | 1 (≈ 2.08 µM) | > 16 | 1 (≈ 2.08 µM) |
| CCCC[C@H](CN(O)C=O)C(=O)N1CCC[C@H]1c1nnc(-c2ccc(C(C)(C)C)cc2)s1 | > 16 | 1 (≈ 2.18 µM) | 2 (≈ 4.36 µM) | > 16 | > 16 | 2 (≈ 4.36 µM) | 4 (≈ 8.72 µM) | 1 (≈ 2.18 µM) | 4 (≈ 8.72 µM) | > 16 | 4 (≈ 8.72 µM) |
| CCCC[C@H](CN(O)C=O)C(=O)N1CCC[C@H]1c1nnc(-c2cc(C(F)(F)F)cc(C(F)(F)F)c2)s1 | > 16 | 2 (≈ 3.71 µM) | 2 (≈ 3.71 µM) | > 16 | > 16 | 4 (≈ 7.43 µM) | 2 (≈ 3.71 µM) | 2 (≈ 3.71 µM) | > 16 | > 16 | 4 (≈ 7.43 µM) |
| CCCC[C@H](CN(O)C=O)C(=O)N1CCC[C@H]1c1nnc(-c2ccccn2)s1 | 32 (≈ 79.3 µM) | 0.5 (≈ 1.24 µM) | 0.5 (≈ 1.24 µM) | 128 (≈ 317 µM) | 16 (≈ 39.7 µM) | 1 (≈ 2.48 µM) | 0.5 (≈ 1.24 µM) | 0.5 (≈ 1.24 µM) | 0.5 (≈ 1.24 µM) | 32 (≈ 79.3 µM) | 1 (≈ 2.48 µM) |
| CCCC[C@H](CN(O)C=O)C(=O)N1CCC[C@H]1c1nnc(-c2ccc(C#N)cc2F)s1 | > 16 | 0.125 (≈ 0.281 µM) | 0.125 (≈ 0.281 µM) | 8 (≈ 18 µM) | 8 (≈ 18 µM) | 0.25 (≈ 0.561 µM) | 0.125 (≈ 0.281 µM) | 0.125 (≈ 0.281 µM) | 2 (≈ 4.49 µM) | > 16 | 0.5 (≈ 1.12 µM) |
| CCCC[C@H](CN(O)C=O)C(=O)N1CCC[C@H]1c1nnc(-c2ccsc2)s1 | 32 (≈ 78.3 µM) | 0.25 (≈ 0.612 µM) | 4 (≈ 9.79 µM) | 64 (≈ 157 µM) | 16 (≈ 39.2 µM) | 1 (≈ 2.45 µM) | 1 (≈ 2.45 µM) | 0.25 (≈ 0.612 µM) | 2 (≈ 4.9 µM) | 32 (≈ 78.3 µM) | 4 (≈ 9.79 µM) |
| CCCC[C@H](CN(O)C=O)C(=O)N1CCC[C@H]1c1nnc(C2CCCCC2)s1 | > 16 | 1 (≈ 2.45 µM) | 2 (≈ 4.9 µM) | > 16 | > 16 | 2 (≈ 4.9 µM) | 2 (≈ 4.9 µM) | 0.5 (≈ 1.22 µM) | 4 (≈ 9.79 µM) | > 16 | 2 (≈ 4.9 µM) |
| CCCC[C@H](CN(O)C=O)C(=O)N1CCC[C@H]1c1nnc(-c2ccc([N+](=O)[O-])cc2C(F)(F)F)s1 | > 16 | 0.5 (≈ 0.97 µM) | 0.5 (≈ 0.97 µM) | > 16 | > 16 | 1 (≈ 1.94 µM) | 2 (≈ 3.88 µM) | 0.5 (≈ 0.97 µM) | 4 (≈ 7.76 µM) | > 16 | 1 (≈ 1.94 µM) |
| CCCC[C@H](CN(O)C=O)C(=O)N1CCC[C@H]1c1nnc(-c2ccc(OC)c(OC)c2)s1 | > 16 | 0.25 (≈ 0.54 µM) | 1 (≈ 2.16 µM) | > 16 | 16 (≈ 34.6 µM) | 0.5 (≈ 1.08 µM) | 1 (≈ 2.16 µM) | 0.25 (≈ 0.54 µM) | 2 (≈ 4.32 µM) | > 16 | 1 (≈ 2.16 µM) |
| CCCC[C@H](CN(O)C=O)C(=O)N1CCC[C@H]1c1nnc(-c2ccc(OC)cc2)s1 | 16 (≈ 37 µM) | 0.25 (≈ 0.578 µM) | 0.5 (≈ 1.16 µM) | > 16 | > 8 | 0.5 (≈ 1.16 µM) | 0.5 (≈ 1.16 µM) | 0.25 (≈ 0.578 µM) | 1 (≈ 2.31 µM) | > 16 | 1 (≈ 2.31 µM) |
| CCCC[C@H](CN(O)C=O)C(=O)N1CCC[C@H]1c1nnc(-c2sccc2C)s1 | 32 (≈ 75.7 µM) | 0.25 (≈ 0.592 µM) | 0.5 (≈ 1.18 µM) | 64 (≈ 151 µM) | 16 (≈ 37.9 µM) | 0.5 (≈ 1.18 µM) | 0.5 (≈ 1.18 µM) | 0.25 (≈ 0.592 µM) | 0.5 (≈ 1.18 µM) | 16 (≈ 37.9 µM) | 0.5 (≈ 1.18 µM) |
| CCCCc1ccc(-c2nnc([C@@H]3CCCN3C(=O)[C@H](CCCC)CN(O)C=O)s2)cc1 | > 16 | 2 (≈ 4.36 µM) | 4 (≈ 8.72 µM) | > 16 | > 16 | 4 (≈ 8.72 µM) | 4 (≈ 8.72 µM) | 2 (≈ 4.36 µM) | 8 (≈ 17.4 µM) | > 16 | 4 (≈ 8.72 µM) |
